In patent publication US20080124741A1, “Canine Cholecystokinin 1 Receptor Materials And Their Use” (priority 2004, published 2008):
Where two headings read alike, the source gives them in different places.

Columns and labels:
[1] = target: T1, canine CCK1 receptor (Canis lupus familiaris, UniProt Q5D0K2); assay: competition binding of [125I]-BH-CCK-8S at cloned canine CCK1 receptor stably expressed in CHO-K cells
T1 construct: expressed in transfected cells
T1 sequence (Q5D0K2 1-428): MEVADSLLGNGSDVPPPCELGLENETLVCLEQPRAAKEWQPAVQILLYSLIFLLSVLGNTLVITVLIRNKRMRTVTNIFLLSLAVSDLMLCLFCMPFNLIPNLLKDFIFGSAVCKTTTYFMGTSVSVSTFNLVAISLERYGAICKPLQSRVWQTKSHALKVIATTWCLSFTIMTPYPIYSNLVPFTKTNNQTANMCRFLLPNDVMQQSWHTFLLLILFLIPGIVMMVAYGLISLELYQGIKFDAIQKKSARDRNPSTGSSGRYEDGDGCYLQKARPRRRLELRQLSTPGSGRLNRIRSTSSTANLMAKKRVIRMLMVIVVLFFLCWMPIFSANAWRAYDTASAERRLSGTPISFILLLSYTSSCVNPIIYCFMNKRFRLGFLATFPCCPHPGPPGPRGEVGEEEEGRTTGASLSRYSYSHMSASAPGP
Method: The plasmids described above were used for stable transfection into CHO-K cells (Chinese Hamster Ovary) (American Type Culture Collection, Rockville, Md.) using the Effectene transfection method (Qiagen, Chatsworth, Calif.) with 2 μg plasmid for each 100 mm^2 culture dish. These cells were maintained in Ham's F12 selection medium with 10% fetal bovine serum, 2 mM L-glutamine, penicillin (50 U ml^−1), streptomycin (50 mg ml^−1) and Geneticin (0.7 mg ml^−1) (Invitrogen) at 37° C. in a humidified incubator under an atmosphere containing 5% CO2. Media was changed every other day. Isolated Geneticin resistant colonies were picked from the 100 mm^2 dishes and grown to confluence in 6 well cluster dishes. 24 individual stable clones were used in a Fluorometric Imaging Plate Reader (FLIPR) assay with CCK-8S (0.01 nM-1 μM) to select a clone with a good signal-to-noise window for use in further experiments.
(§1) For radioligand binding studies, the cells were harvested by cell scraping and resulting pellets immediately frozen at −80° C. (approximately 50×10^6 cells/pellet). Frozen cell pellets were defrosted on ice in 15 ml of assay buffer (composition; 10 mM HEPES, 130 mM NaCl, 4.7 mM KCl, 5 mM MgCl2, bacitracin 0.089; pH 7.2 at 21±3° C.) and then homogenized (setting 10, 7×3 s; Polytron; Brinkmann Instruments). The homogenate was centrifuged (800×g for 10 min) and the pellet discarded. The supernatant was re-centrifuged (39,800×g for 25 min) and the final pellet re-suspended in 20 ml assay buffer (cell concentration: 25×10^5 cells ml^−1). Protein concentration was determined using BCA Protein Assay Kit (Pierce, Rockford, Ill.). All binding assays were conducted in 96 well Multiscreen GF/B filter plates (Millipore, Billerica, Mass., USA) that were pre-soaked in assay buffer for 1 h. […] Nonspecific binding was determined by inclusion of 10 μM 2-NAP (a CCK1 receptor selective antagonist; see, e.g., Hull et al., 1993, Br. J. Pharmacol., 108:734-740). All radioligand binding studies were conducted in the presence of the CCK2 receptor-selective antagonist PD-134,308 at a concentration estimated to occupy 99% of human CCK2 receptors (0.3 μM; se, e.g., Hughes et al., 1990, Proc. Natl. Acad. Sci. U.S.A., 87(17):6728-6732; Hunter et al., 1993, Mol. Pharmacol., 43:595-602). The bound radioactivity was separated by filtration using a Multiscreen Resist manifold (Millipore, Billericay, Mass., USA). The filters were washed three times with ice-cold PBS (pH 7.5) and radioactivity retained on the filters was measured by liquid scintillation counting using a TopCount (Packard BioScience, Boston, Mass.). All experiments were performed in triplicate.
(§2) Equilibrium dissociation constant (K1) values were assumed to be equal to the IC50 values obtained from the logistic curve fit as the radiolabel concentrations used in the assays were always below the KD of the radiolabel. The equilibrium dissociation constants (K1) values were calculated from the midpoint locations (IC50) following Cheng & Prusoff, eqn.
(§3) Competition-inhibition studies were conducted on the canine and human CCK1 receptor using a cell-protein concentration within the linear range of the cell number curve (80 μg/ml, cell number curves not shown).

[2] = target: T2, human CCK1 receptor (Homo sapiens, UniProt P32238); assay: competition binding of [125I]-BH-CCK-8S at cloned human CCK1 receptor
T2 construct: expressed in transfected cells
T2 sequence (P32238 1-428): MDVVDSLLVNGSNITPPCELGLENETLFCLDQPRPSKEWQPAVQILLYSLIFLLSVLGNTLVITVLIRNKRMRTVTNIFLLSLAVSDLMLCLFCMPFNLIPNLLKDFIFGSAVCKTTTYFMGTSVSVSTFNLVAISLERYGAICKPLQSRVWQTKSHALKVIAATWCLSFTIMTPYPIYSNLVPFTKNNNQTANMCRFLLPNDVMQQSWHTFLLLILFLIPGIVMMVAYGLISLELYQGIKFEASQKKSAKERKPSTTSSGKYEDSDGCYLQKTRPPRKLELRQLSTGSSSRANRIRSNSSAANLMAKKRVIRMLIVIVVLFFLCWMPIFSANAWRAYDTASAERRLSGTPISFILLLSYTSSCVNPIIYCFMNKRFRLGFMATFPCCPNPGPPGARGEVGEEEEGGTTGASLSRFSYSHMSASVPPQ
Method: as §1, §2, §3

[3] = target: T3, canine CCK2 receptor (Canis lupus familiaris, UniProt P30552); assay: competition binding of [125I]-BH-CCK-8S at canine CCK2 receptor; settings: for fold higher affinity at the canine CCK2 receptor compared to the canine CCK1 receptor: canine CCK2 over canine CCK1
T3 sequence (P30552 1-453): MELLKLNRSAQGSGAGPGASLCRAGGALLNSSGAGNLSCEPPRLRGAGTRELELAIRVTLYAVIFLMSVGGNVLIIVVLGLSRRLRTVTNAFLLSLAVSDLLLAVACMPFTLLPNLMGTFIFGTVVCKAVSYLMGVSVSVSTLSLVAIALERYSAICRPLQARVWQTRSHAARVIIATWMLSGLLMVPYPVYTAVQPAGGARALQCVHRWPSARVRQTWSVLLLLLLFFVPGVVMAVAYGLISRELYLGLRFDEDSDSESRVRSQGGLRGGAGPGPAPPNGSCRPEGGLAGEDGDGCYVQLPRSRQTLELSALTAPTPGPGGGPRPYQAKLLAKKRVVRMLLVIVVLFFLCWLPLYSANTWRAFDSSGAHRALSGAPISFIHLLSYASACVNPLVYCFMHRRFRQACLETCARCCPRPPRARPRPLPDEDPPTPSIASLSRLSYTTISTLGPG

[4] = target: T4, Canine CCK1: Wild-type (Canis lupus familiaris, UniProt Q5D0K2); assay: competition binding at wild-type canine CCK1 receptor transiently transfected in HEK cells; settings: n = 3, ± s.e. mean; for Ki: read-out: pKI (affinity value, -log equilibrium dissociation constant) (converted)
T4 construct: The ORF encodes a 428 amino-acid protein; expressed in transfected cells; host or cells: HEK-293 cells, transient
T4 sequence (Q5D0K2 1-428): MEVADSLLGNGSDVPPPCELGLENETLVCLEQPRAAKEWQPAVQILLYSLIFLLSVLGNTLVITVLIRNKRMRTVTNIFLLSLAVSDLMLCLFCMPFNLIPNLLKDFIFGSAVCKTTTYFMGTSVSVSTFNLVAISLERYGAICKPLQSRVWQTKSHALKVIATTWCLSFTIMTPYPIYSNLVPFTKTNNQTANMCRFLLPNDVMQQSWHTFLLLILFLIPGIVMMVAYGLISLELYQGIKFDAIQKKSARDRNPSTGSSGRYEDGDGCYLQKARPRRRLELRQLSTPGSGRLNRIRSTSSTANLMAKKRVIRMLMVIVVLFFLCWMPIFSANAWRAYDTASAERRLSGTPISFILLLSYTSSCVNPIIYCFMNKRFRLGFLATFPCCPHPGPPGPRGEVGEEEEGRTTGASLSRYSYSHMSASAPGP
Method: (§4) For radioligand binding studies, the cells were harvested by cell scraping and resulting pellets immediately frozen at −80° C. (approximately 50×10^6 cells/pellet). Frozen cell pellets were defrosted on ice in 15 ml of assay buffer (composition; 10 mM HEPES, 130 mM NaCl, 4.7 mM KCl, 5 mM MgCl2, bacitracin 0.089; pH 7.2 at 21±3° C.) and then homogenized (setting 10, 7×3 s; Polytron; Brinkmann Instruments). The homogenate was centrifuged (800×g for 10 min) and the pellet discarded. The supernatant was re-centrifuged (39,800×g for 25 min) and the final pellet re-suspended in 20 ml assay buffer (cell concentration: 25×10^5 cells ml^−1). Protein concentration was determined using BCA Protein Assay Kit (Pierce, Rockford, Ill.). All binding assays were conducted in 96 well Multiscreen GF/B filter plates (Millipore, Billerica, Mass., USA) that were pre-soaked in assay buffer for 1 h. […] The bound radioactivity was separated by filtration using a Multiscreen Resist manifold (Millipore, Billericay, Mass., USA). The filters were washed three times with ice-cold PBS (pH 7.5) and radioactivity retained on the filters was measured by liquid scintillation counting using a TopCount (Packard BioScience, Boston, Mass.). All experiments were performed in triplicate.
as §2
(§5) In order to investigate these variants, plasmid DNAs containing the respective variant canine CCK1 receptor cDNAs and the wild type cDNA were transiently transfected into HEK-293 cells using Lipofectamine 200 transfection reagent and Opti-MEM medium (Invitrogen). Cells were harvested at 48-72 hours after transfection and the pellets were frozen at −80° C. The cells were then harvested, assayed, and the data analyzed as described above.

[5] = target: T5, Canine CCK1: Variant #1 (Canis lupus familiaris, UniProt Q5D0K2, G258S/L413V/V400A); assay: competition binding at variant #1 canine CCK1 receptor transiently transfected in HEK cells; settings: Canine CCK1 variant #1, transiently transfected in HEK cells, n = 3, ± s.e. mean; for Ki: read-out: pKI (affinity value, -log equilibrium dissociation constant) (converted)
T5 construct: plasmid DNAs containing the respective variant canine CCK1 receptor cDNAs and the wild type cDNA were transiently transfected; expressed in transfected cells; host or cells: HEK-293 cells, transient
T5 sequence (Q5D0K2 1-428 G258S/V400A/L413V): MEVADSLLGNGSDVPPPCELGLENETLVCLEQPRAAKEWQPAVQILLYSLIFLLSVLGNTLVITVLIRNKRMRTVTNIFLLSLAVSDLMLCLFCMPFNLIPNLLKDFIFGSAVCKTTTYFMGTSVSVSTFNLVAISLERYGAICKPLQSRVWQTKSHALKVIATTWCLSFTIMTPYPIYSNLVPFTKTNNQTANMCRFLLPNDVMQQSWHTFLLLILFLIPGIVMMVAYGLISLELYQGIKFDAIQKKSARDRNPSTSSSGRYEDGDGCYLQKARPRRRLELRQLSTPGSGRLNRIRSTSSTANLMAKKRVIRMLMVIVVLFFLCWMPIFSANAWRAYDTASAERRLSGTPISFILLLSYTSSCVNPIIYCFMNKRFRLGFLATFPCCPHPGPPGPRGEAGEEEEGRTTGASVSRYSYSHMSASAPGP
Method: as §4, §2, §5

[6] = test system: putative CCK1 receptor binding sites labeled with [3H]-L-364,718; settings: canine intestine (Mao et al., 1995); cited from earlier work
[7] = Canine CCK1, CHO-K cells, [125I]-BH-CCK-8S radiolabel, n = 3, ± s.e. mean
[8] = Canine CCK1, CHO-K cells, [125I]-BH-CCK-8S radiolabel, n = 3, ± s.e. mean, read-out: pKI (affinity value, -log equilibrium dissociation constant) (converted)
[9] = Human CCK1, [125I]-BH-CCK-8S radiolabel, n = 3, ± s.e. mean
[10] = Human CCK1, [125I]-BH-CCK-8S radiolabel, n = 3, ± s.e. mean, read-out: pKI (affinity value, -log equilibrium dissociation constant) (converted)
[11] = Canine CCK2, [125I]-BH-CCK-8S radiolabel, n = 3, ± s.e. mean

SMILES	nH (Hill slope) [1, 7]	Ki [1, 8] [µM]	fold higher affinity at the canine CCK1 receptor (compared to canine CCK2) ([1]; canine CCK1 over canine CCK2) [fold]	nH (Hill slope) [2, 9]	Ki [2, 10] [µM]	nH (Hill slope) [3, 11]	Ki ([3]; Canine CCK2, [125I]-BH-CCK-8S radiolabel, n = 3, ± s.e. mean, read-out: pKI (affinity value, -log equilibrium dissociation constant) (converted)) [µM]	nH (Hill slope) [4]	Ki [4] [µM]	nH (Hill slope) [5]	Ki [5] [µM]	Ki [1] [µM]	Ki [2] [µM]	Ki [3] [µM]	fold higher affinity at the canine CCK2 receptor compared to the canine CCK1 receptor [3] [fold]	inhibitory effect at [3H]-L-364,718 binding sites [6]
CCCCCN(CCCOC)C(=O)[C@@H](CCC(=O)O)NC(=O)c1ccc(Cl)c(Cl)c1 [dexloxiglumide, (R)-4-(3,4-Dichloro-benzoylamino)-4-[(3-methoxy-propyl)-pentyl-carbamoyl]-butyric acid]	0.83 ± 0.13	0.0295	93	0.91 ± 0.18	0.0295	0.71 ± 0.09	2.75	1.33 ± 0.43	0.0166	0.90 ± 0.17	0.0166					
Cc1cccc(NC(=O)N[C@@H]2N=C(c3ccccc3)c3ccccc3N(C)C2=O)c1 [L-365,260, 3R(+)—N-(2,3-dihydro-1-methyl-2-oxo-5-phenyl-1H-1,4-benzodiazepin-3-yl)-N′-(3-methylphenyl)urea]	1.17 ± 0.09			1.32 ± 0.14		0.95 ± 0.08		0.96 ± 0.32	0.219	1.08 ± 0.33	0.155	0.245	0.245	0.0933	~2.6	
Cc1cccc(NC(=O)N[C@@H]2N=C(c3ccccc3)c3ccccc3N(CC(=O)c3ccccc3C)C2=O)c1 [YM022, 1-[(R)-2,3-dihydro-1-(2-methylphenacyl)-2-oxo-5-phenyl-1H-1,4-benzodiazepin-3-yl]-3-(3-methylphenyl)urea]	1.09 ± 0.13	0.00525		1.15 ± 0.14	0.00776	0.92 ± 0.10		1.17 ± 0.30	0.011	1.39 ± 0.39	0.00832			0.000195	27	no inhibitory effect
